Assay results: patent US20210387983A1, “CRYSTALLINE ALK5 INHIBITORS AND USES THEREOF” (THERAVANCE BIOPHARMA R&D IP, LLC, priority 2020, published 2021)

Assay: Dynamic moisture sorption (DMS) analysis
Type: physicochemical
Conditions: for XRPD pattern of solid after two consecutive sorption-desorption cycles: 5-90% RH, 25° C.; for total moisture gain: exposed to 5-90% relative humidity, about 25° C.; for hygroscopicity: from DMS data
Method: Dynamic moisture sorption (DMS) analysis was performed on weighed samples of the crystalline forms of the compound of Formula I using a VTI atmospheric microbalance, SGA-100 system (VTI Corp., Hialeah, Fla. 33016). Following an initial drying step (approximately 0% RH) of 2 hours, two cycles of sorption and desorption were completed isothermally at 25° C. at a scan rate of 5% RH/step over a humidity range of 5 to 90% RH. Representative DMS traces of polymorph Form I and polymorph Form II of a fumarate salt of the compound of Formula I and polymorph Form III of the compound of Formula I (freebase) are shown in FIG. 4, FIG. 8 and FIG. 12, respectively.

Compound: C[C@@H]1CN(CCNc2cnc3ccc(-c4nc[nH]c4-c4cc(Cl)ccc4F)nc3c2)C[C@H](C)N1.O=C(O)/C=C/C(=O)O [polymorph Form I, 6-(5-(5-chloro-2-fluorophenyl)-1H-imidazol-4-yl)-N-(2-((3S,5R)-3,5-dimethylpiperazin-1-yl)ethyl)-1,5-naphthyridin-3-amine, fumaric Acid]
- XRPD pattern of solid after two consecutive sorption-desorption cycles: no change in form
- total moisture gain: about 1.30 % by weight
- hygroscopicity: slightly-hygroscopic

Compound: C[C@@H]1CN(CCNc2cnc3ccc(-c4nc[nH]c4-c4cc(Cl)ccc4F)nc3c2)C[C@H](C)N1.O=C(O)/C=C/C(=O)O [polymorph Form II, 6-(5-(5-chloro-2-fluorophenyl)-1H-imidazol-4-yl)-N-(2-((3S,5R)-3,5-dimethylpiperazin-1-yl)ethyl)-1,5-naphthyridin-3-amine, fumaric Acid]
- XRPD pattern of solid after two consecutive sorption-desorption cycles: no change in form
- total moisture gain: about 0.85 % by weight
- hygroscopicity: slightly-hygroscopic

Compound: C[C@@H]1CN(CCNc2cnc3ccc(-c4nc[nH]c4-c4cc(Cl)ccc4F)nc3c2)C[C@H](C)N1 [polymorph Form III, 6-(5-(5-chloro-2-fluorophenyl)-1H-imidazol-4-yl)-N-(2-((3S,5R)-3,5-dimethylpiperazin-1-yl)ethyl)-1,5-naphthyridin-3-amine]
- XRPD pattern of solid after two consecutive sorption-desorption cycles: no change in form
- total moisture gain: about 0.6 % by weight
- hygroscopicity: slightly-hygroscopic
